One compound from patent publication US20250154156A1, “QUINAZOLINE DERIVATIVE AS KRAS G12C MUTATION INHIBITOR” (Shenzhen Forward Pharmaceuticals Co., Limited, priority 2022, published 2025) can be followed below.

Data set [1] deals with Ba/F3 (KRAS-G12C-R68S) cells (Homo sapiens, UniProt P01116, G12C/R68S, cells depend on it). Put plainly: Proliferation experiment of Ba/F3 (KRAS-G12C-R68S) cells. Type of data set: cell-based. As to conditions: 72 hours, Cell Titer-Glo, read-out: Test Example 5 IC50. How it is done: Engineered cell strain Ba/F3 (KRAS-G12C-R68S) was a cell strain constructed by the inventors according to the methods described in Warmuth M. et al, Curr Opin Oncol. […] The cells were grown at 37° C. in a humidified incubator with 5% CO2.
(§1) According to the solution described in Cell Titer-Glo Luminescent cell Viability Assay (Promega catalog number #G7570) of Promega Corporation, the number of living cells in the culture was detected. 90 μL of cells (3,000 cells/well) were cultured in a growth medium in a Corning black transparent bottom 96-well plate and were cultured overnight in a 5% CO2 humidified incubator at 37° C. The compound diluted serially in 100% DMSO was added to the cells by a pipette, and the cells were cultured for another 72 hours. 100 μL of the well-mixed Cell Titer-Glo reagent was added to the cells in the 96-well culture plate to lyse the cells and gently mixed. Subsequently, […] was detected on an Envision microplate detector, and the data of each compound was obtained. Finally, the data was input into a suitable software package (such as Prism) for curve fitting analysis.

Data set [2] deals with Ba/F3 (KRAS-G12C-Y96C) cells (Homo sapiens, UniProt P01116, G12C/Y96C, cells depend on it). Put plainly: Proliferation experiment of Ba/F3 (KRAS-G12C-Y96C) cells. It counts as cell-based. The settings on record: 72 hours, Cell Titer-Glo, read-out: Test Example 3 IC50. How it is done: Engineered cell strain Ba/F3 (KRAS-G12C-Y96C) was a cell strain constructed by the inventors according to the methods described in Warmuth M. et al, Curr Opin Oncol. […] The cells were grown at 37° C. in a humidified incubator with […].
as §1, with “[…]” for “5%”

In data set [3] the target is Ba/F3 (KRAS-G12C-Q99L) cells (Homo sapiens, UniProt P01116, G12C/Q99L, cells depend on it). Briefly: Proliferation experiment of Ba/F3 (KRAS-G12C-Q99L) cells. The settings on record: 72 hours, Cell Titer-Glo, read-out: Test Example 6 IC50. Type of data set: cell-based. As to the method: Engineered cell strain Ba/F3 (KRAS-G12C-Q99L) was a cell strain constructed by the inventors according to the methods described in Warmuth M. et al, Curr Opin Oncol. […] The cells were grown at 37° C. in a humidified incubator with 5% CO2.
as §1

In data set [4] the target is Ba/F3 (KRAS-G12C-H95Q) cells (Homo sapiens, UniProt P01116, G12C/H95Q, cells depend on it). Put plainly: Proliferation experiment of Ba/F3 (KRAS-G12C-H95Q) cells. The settings on record: 72 hours, Cell Titer-Glo, read-out: Test Example 4 IC50. Type of data set: cell-based. How it is done: Engineered cell strain Ba/F3 (KRAS-G12C-H95Q) was a cell strain constructed by the inventors according to the methods described in Warmuth M. et al, Curr Opin Oncol. […] The cells were grown at 37° C. in a humidified incubator with […].
as §1

The subject of data set [5] is NCI-H358 cells (KRAS G12C mutant cell line). Briefly: Proliferation experiment of NCI-H358 cells (Cell Titer-Glo). The settings on record: Homo sapiens, 72 hours, read-out: Test Example 1 IC50. Type of data set: cell-based. How it is done:
as §1, with “(8,000” for “(3,000”

Data set [6] deals with NCI-H23 cells (KRAS G12C mutant cell line). Briefly: Proliferation experiment of NCI-H23 cells (Cell Titer-Glo). It counts as cell-based. As to conditions: Homo sapiens, 72 hours, read-out: Test Example 2 IC50. How it is done: Human lung cancer cell line NCI-H23 (ATCC, CRL-5800) was a KRAS G12C mutant cell line.
as §1, with “(8,000” for “(3,000”

Data set [7] in a line: In vitro human liver microsome stability experiment. It counts as in vitro ADME. As to conditions: human liver microsomes. As to the method: Eight 96-well incubation plates were prepared, named [NT], Blank60, and NCF60, respectively. […] No compound to be tested or control compound was added to the Blank60 plate and samples were taken after 60 minutes of incubation. The NCF60 plate, in which a potassium phosphate buffer was used instead of an NADPH regeneration system solution (Sigma, N0505), was incubated for 60 minutes. […] Only the working solution of microsomes was added to the Blank60 plate, and the incubation plates Blank60, T5, T15, T30, T45, and T60 except TO and NCF60 were then placed in a water bath at 37° C. for pre-incubation for about 10 minutes. To the TO plate sample, 600 μL of a stop solution (acetonitrile:methanol (95:5, v/v) solution containing 100 ng/mL tolbutamide (Sigma, T0891)) was added first, and then an NADPH regeneration system working solution was added. 98 μL of a potassium phosphate buffer was added to each well of the NCF60 plate and incubated for 60 minutes. After the pre-incubation in the incubation plates Blank60, T5, T15, T30, T45, and T60 was complete, 98 μL of the NADPH regeneration system working solution was added to each sample well to initiate the reaction. After an appropriate incubation time (such as 5, 15, 30, 45, and 60 minutes), 600 μL of the stop solution was added to each sample well and control sample well in the Blank60, […] the reaction. All the sample plates were shaken evenly and centrifuged at 3220×g for 20 minutes. 200 μL of each test sample supernatant was taken and diluted into 200 μL of an aqueous solution containing 0.3% formic acid for LC-MS/MS analysis, and 100 μL of the control sample supernatant was taken and diluted into 300 μL of pure water for LC-MS/MS analysis. Calculations were carried out according to the following formulas: […]

Sequence of Ba/F3 (KRAS-G12C-Y96C) cells (P01116 whole entry G12C/Y96C): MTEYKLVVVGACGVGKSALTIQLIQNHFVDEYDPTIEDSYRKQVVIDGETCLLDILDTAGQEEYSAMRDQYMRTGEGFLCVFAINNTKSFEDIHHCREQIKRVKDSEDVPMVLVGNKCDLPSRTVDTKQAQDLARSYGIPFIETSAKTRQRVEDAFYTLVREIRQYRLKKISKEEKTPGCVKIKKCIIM
Sequence of Ba/F3 (KRAS-G12C-H95Q) cells (P01116 whole entry G12C/H95Q): as the sequence (P01116 whole entry G12C/Y96C) above, with H95Q, C96Y counted along it
Sequence of Ba/F3 (KRAS-G12C-R68S) cells (P01116 whole entry G12C/R68S): as the sequence (P01116 whole entry G12C/Y96C) above, with R68S, C96Y counted along it
Sequence of Ba/F3 (KRAS-G12C-Q99L) cells (P01116 whole entry G12C/Q99L): as the sequence (P01116 whole entry G12C/Y96C) above, with C96Y, Q99L counted along it

On to `C#Cc1c(F)ccc2cc(O)cc(-c3c(F)cc4c(N5CCN(C(=O)C(=C)F)[C@@H](CC#N)C5)nc(OC[C@@]56CCCN5C[C@H](F)C6)nc4c3F)c12` [Compound 24A, 2-((2S)-4-(7-(8-ethynyl-7-fluoro-3-hydroxynaphth-1-yl)-6,8-difluoro-2-(((2R,7aS)-2-fluorotetrahydro-1H-pyrrolizin-7a(5H)-yl)methoxy)quinazolin-4-yl)-1-(2-fluoroacryloyl)piperazin-2-yl)acetonitrile], for which the GI50 in data set [1] was 5.5 nM; in data set [2], 4 nM; in data set [3], 4 nM; in data set [4] it was 7.6 nM. Further, the half-maximal inhibitory concentration (IC50) in data set [5] was 0.25 nM; in data set [6] it was 0.52 nM. Also, the half-life in data set [7] (1 mg/mL microsome protein, NADPH, 37° C.) was determined as 17.1 min. Further, the microsomal CLint in data set [7] (1 mg/mL microsome protein, NADPH, 37° C., read-out: CLint(mic)) is 81.3 µL/min/mg. Further, the CLint scaled in data set [7] (scaled to liver) was determined as 73.2 mL/min/kg.
